Tests used:
[1] = Absorption rate of ibuprofen in mice (tail vein samples); assay type: in vivo; conditions: mouse, blood (tail vein samples), 25 mg/kg
Excerpt: Additional experiments to test the absorption rate of the different omega-3 oil-containing pharmaceutical compositions described herein was illustrated in a mouse model.

[2] = test system: stomach lesions in fasted mice; conditions: 10 mg/kg ketoprofen, one hour after administration, n = 8
[3] = test system: carrageenin-induced ear swelling mouse model; experiment: Carrageenin-induced ear swelling mouse model of inflammation; conditions: mice, ketoprofen 2 mg/kg, ear volume vs control mice, eight mice per treatment

Cmax [1] [ng/mL]	Average Lesions Score/Stomach [2]	Compound	% of Inhibition of Inflammation [3] [%]
10000		CC(C)Cc1ccc(C(C)C(=O)O)cc1 (stereo not drawn) [Ibuprofen in saline, ibuprofen]	
	33	CC(C(=O)O)c1cccc(C(=O)c2ccccc2)c1 (stereo not drawn) [Ketoprofen in Saline, ketoprofen]	45

— patent US11224585B2, “Compositions containing omega-3 oil and uses thereof” (Maine Natural Health Company, Inc., priority 2010, dated 2022)
